Reference: patent publication US8722665B2, “Cinnamido-pyrrolo[2,1-C][1,4]benzodiazepines as potential anticancer agents and process for the preparation thereof” (Council of Scientific & Industrial Research, priority 2008, dated 2014)

Tests used:
SK-MEL-5 = assay: In vitro cytotoxicity (SRB); type: cell-based, human; details: SK-MEL-5 (Melanoma); 48 h continuous drug exposure
Procedure: (§1) The compounds were evaluated for in vitro anticancer activity against sixty human tumour cells derived from nine cancer types (leukemia, non-small-cell lung, colon, CNS, melanoma, ovarian, prostate, and breast cancer) as shown in Table 1a. For each compound, dose response curves for each cell line were measured at a minimum of five concentrations at 10 fold dilutions. A protocol of 48 h continuous drug exposure was used and a sulforhodamine B (SRB) protein assay was used to estimate cell viability or growth. The concentration causing 50% cell growth inhibition (GI50), total cell growth inhibition (TGI 0% growth) and 50% cell death (LC50, −50% growth) compared with the control was calculated. The Log10 GI50 (concentration in mol/L causing 50% growth inhibition) values for Cinnamido-pyrrolo[2,1-c][1,4]benzodiazepine (8b) is listed in Table 2.

HT29 = assay: In vitro cytotoxicity (SRB); type: cell-based, human; details: HT29 (Colon); 48 h continuous drug exposure
Procedure: as §1

LOX IMVI = assay: In vitro cytotoxicity (SRB); type: cell-based, human; details: LOX IMVI (Melanoma); 48 h continuous drug exposure
Procedure: as §1

SF-295 = assay: In vitro cytotoxicity (SRB); type: cell-based, human; details: SF-295 (CNS); 48 h continuous drug exposure
Procedure: as §1

OVCAR-5 = assay: In vitro cytotoxicity (SRB); type: cell-based, human; details: OVCAR-5 (Ovarian); 48 h continuous drug exposure
Procedure: as §1

NCI-H322M = assay: In vitro cytotoxicity (SRB); type: cell-based, human; details: NCI-H322M (Non-small cell lung); 48 h continuous drug exposure
Procedure: as §1

[1] = test system: sixty human tumour cell lines; assay: In vitro cytotoxicity (SRB), mean graph midpoints; type: cell-based; details: 48 h exposure
Procedure: as §1

`COc1cc(/C=C/C(=O)N2CCN(C(=O)c3cc(OC)c(OC)c(OC)c3)CC2)ccc1OCCCOc1cc2c(cc1OC)C(=O)N1CCC[C@H]1C=N2` [8b, 7-methoxy-8-{3-(2-methoxy-4-(E)-3-oxo-3-[4-(3,4,5-trimethoxybenzoyl)piperazino]-1-propenylphenoxy)propoxy}-(11aS)-2,3,5,11^a-tetrahydro-5H-pyrrolo[2,1-c][1,4]benzo-diazepine-5-one] was tested, and the GI50 (SK-MEL-5) was 190 nM, the GI50 (HT29) was 400 nM and the GI50 (LOX IMVI) was 180 nM. The GI50 (SF-295) was 10 nM, the GI50 (OVCAR-5) was 290 nM and the GI50 (NCI-H322M) was 3070 nM. For the same molecule, the “Log10 GI50 mean graph midpoint (MG_MID)” value [1] was −6.48 mol/L, the “Log10 LC50 mean graph midpoint (MG_MID)” value [1] was −4.5 and the “Log10 TGI mean graph midpoint (MG_MID)” value [1] was −5.59.
